What was measured:
human GPR55 = biological target: T1, human GPR55 (Homo sapiens, UniProt Q9Y2T6); experiment: Ca2+ mobilization assay (FLIPR, Calcium5 dye), human GPR55; type: cell-based; settings: HEK293 cells co-expressing PK-tagged human GPR55 and EA-tagged beta-arrestin; intracellular calcium increase
T1 construct: expressed in transfected cells; host or cells: HEK293 (human embryonic kidney) cells
Summary of the method: (§1)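 HEK293 cells co-expressing PK-tagged human or rat GPR55 and EA-tagged beta-arrestin were loaded with Calcium5 dye for 1 hour at 37° C in HEPES/HBSS buffer, pH 7.4, with probenecid and 0.1% BSA. Compound dilution series were added in duplicate and calcium rise followed by FLIPR fluorescence; response = maximum minus minimum.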

rat GPR55 = biological target: T2, rat GPR55 (Rattus norvegicus, UniProt F1MAK4); experiment: Ca2+ mobilization assay (FLIPR, Calcium5 dye), rat GPR55; type: cell-based; settings: HEK293 cells co-expressing PK-tagged rat GPR55 and EA-tagged beta-arrestin; intracellular calcium increase
T2 construct: expressed in transfected cells; host or cells: HEK293 (human embryonic kidney) cells
T2 sequence (F1MAK4 1-319): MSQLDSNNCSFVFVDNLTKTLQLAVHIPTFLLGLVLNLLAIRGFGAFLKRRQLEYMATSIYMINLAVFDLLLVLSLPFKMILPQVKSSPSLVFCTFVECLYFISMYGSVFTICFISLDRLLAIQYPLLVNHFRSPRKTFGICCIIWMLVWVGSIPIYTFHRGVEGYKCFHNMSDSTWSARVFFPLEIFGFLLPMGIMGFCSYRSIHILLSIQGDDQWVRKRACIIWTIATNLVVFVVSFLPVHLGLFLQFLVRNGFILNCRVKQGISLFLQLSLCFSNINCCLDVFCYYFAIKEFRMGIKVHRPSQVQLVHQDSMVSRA
Summary of the method: as §1

[1] = test system: striatal medium spiny neurons; experiment: Electrophysiology assay: whole-cell patch clamp, firing frequency; type: cell-based, Wistar rat; settings: rat striatal cultures, current steps 10-200 pA
Method: Selected compounds were tested in electrophysiology.
Striatal cultures were prepared as follows. Wistar rat embryos (E18) were sacrificed by cervical dislocation and brains removed into an ice-cold hanks balanced salt solution (HBSS) containing 10 mM HEPES, 1 mM sodium pyruvate and 0.035% sodium bicarbonate. The brain was hemisected, striata removed and placed in a papain solution (Worthington LK003150) for 10 min at 37° C. Tissue was then vigorously triturated until devoid of clumps, passed through a 70 μm mesh filter and centrifuged at 1000 rcf for 5 min. Supernatant was discarded and cells resuspended and centrifuged once more through an ovomucoid gradient before final resuspension in plating medium (containing EMEM 75%, FBS 10%, glutamate 12.5 μM, GlutaMax 0.5 mM, sodium pyruvate 10 mM, glucose 33.3 mM, HEPES […]). Cells were counted and spot plated onto 13 mm coverslips at a density of 200K. After 3 h, solution was topped up to 1 ml with growth medium (containing NBplus 98%, B27plus 2%, GlutaMax 0.5 mM). […]
Whole-cell patch clamp recordings were performed from visually identified medium spiny neurons. A step protocol was applied to inject current into the cell (10-200 pA, 10 pA steps, 500 ms) and resulting action potentials recorded. […] Frequency of firing was analysed off-line using Clampfit software.

T1 sequence (Q9Y2T6 whole entry): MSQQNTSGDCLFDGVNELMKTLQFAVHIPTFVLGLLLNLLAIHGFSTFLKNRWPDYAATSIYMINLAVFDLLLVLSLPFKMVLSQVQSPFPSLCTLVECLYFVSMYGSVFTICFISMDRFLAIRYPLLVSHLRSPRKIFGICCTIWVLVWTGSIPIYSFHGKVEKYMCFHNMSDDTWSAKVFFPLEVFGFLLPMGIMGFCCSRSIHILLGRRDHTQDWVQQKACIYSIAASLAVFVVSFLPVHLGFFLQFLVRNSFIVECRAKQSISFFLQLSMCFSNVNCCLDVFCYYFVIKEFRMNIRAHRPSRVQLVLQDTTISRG

Structure (SMILES) | EC50 (human GPR55) | EC50 (rat GPR55) | firing frequency of medium spiny neurons relative to baseline ([1]; 10 μM, FIG. 2) | firing frequency of medium spiny neurons relative to baseline ([1]; 1 μM, FIG. 3)
COc1cncc(-c2ccc(N[C@H](C)c3ccc(F)cc3)nc2)c1 [Example 6, (R)-N-(1-(4-fluorophenyl)ethyl)-5′-methoxy-[3,3′-bipyridin]-6-amine] | ≤ 200 nM | ≤ 50 nM | significantly reduced the frequency | 
C[C@@H](Nc1cnc(-c2cncc(CC(F)F)c2)cn1)c1ccc(F)cc1 [Example 31, (R)-5-(5-(2,2-difluoroethyl)pyridin-3-yl)-N-(1-(4-fluorophenyl)ethyl)pyrazin-2-amine] | ≤ 50 nM | ≤ 50 nM |  | significantly reduced the frequency

— patent US20250282728A1, “NITROGEN COMPRISING HETEROCYCLIC DERIVATIVES FOR THE TREATMENT OF DISORDERS ASSOCIATED WITH GPR55 RECEPTOR” (Cerevance, Inc., priority 2022, published 2025)
